One test has as its target T1, IKKε (Homo sapiens, UniProt Q14164).
T1 sequence (Q14164 1-716): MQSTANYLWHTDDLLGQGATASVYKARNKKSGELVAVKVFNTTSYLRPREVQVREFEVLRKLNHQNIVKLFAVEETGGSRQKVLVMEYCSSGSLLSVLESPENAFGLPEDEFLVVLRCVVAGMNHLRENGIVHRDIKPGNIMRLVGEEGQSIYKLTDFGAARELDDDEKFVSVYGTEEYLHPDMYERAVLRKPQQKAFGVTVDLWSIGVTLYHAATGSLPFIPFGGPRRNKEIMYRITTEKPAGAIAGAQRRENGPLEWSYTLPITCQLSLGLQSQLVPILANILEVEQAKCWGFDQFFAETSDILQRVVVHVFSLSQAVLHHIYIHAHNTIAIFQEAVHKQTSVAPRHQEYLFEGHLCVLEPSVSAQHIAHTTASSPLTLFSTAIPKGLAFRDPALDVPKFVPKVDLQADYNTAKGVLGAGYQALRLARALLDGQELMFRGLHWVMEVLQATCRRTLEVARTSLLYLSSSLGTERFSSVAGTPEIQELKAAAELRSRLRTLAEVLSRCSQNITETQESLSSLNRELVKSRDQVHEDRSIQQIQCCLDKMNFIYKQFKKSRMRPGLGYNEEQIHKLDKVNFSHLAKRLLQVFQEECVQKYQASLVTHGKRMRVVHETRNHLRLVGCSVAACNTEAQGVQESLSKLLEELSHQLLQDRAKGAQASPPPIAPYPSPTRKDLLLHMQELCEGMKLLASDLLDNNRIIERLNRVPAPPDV
The experiment in a line: IKKε biochemical assay. Conditions: 10 point 1:4 dose response, 30 uM top concentration, 90 min at 25° C., LabChip EZ Reader II; read-out: IKKε_IC50. A digest of the protocol: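 Mobility-shift LabChip read-out followed a 90 min, 25° C. reaction of IKKε with substrate and test compound, with DMSO held at 1% final. Reactions were ended with stop buffer. Wells with 10 uM final staurosporine defined complete inhibition, and DMSO-only wells the uninhibited level.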

Another test concerns the target T2, TBK1 (Homo sapiens, UniProt Q9UHD2).
T2 sequence (Q9UHD2 1-729): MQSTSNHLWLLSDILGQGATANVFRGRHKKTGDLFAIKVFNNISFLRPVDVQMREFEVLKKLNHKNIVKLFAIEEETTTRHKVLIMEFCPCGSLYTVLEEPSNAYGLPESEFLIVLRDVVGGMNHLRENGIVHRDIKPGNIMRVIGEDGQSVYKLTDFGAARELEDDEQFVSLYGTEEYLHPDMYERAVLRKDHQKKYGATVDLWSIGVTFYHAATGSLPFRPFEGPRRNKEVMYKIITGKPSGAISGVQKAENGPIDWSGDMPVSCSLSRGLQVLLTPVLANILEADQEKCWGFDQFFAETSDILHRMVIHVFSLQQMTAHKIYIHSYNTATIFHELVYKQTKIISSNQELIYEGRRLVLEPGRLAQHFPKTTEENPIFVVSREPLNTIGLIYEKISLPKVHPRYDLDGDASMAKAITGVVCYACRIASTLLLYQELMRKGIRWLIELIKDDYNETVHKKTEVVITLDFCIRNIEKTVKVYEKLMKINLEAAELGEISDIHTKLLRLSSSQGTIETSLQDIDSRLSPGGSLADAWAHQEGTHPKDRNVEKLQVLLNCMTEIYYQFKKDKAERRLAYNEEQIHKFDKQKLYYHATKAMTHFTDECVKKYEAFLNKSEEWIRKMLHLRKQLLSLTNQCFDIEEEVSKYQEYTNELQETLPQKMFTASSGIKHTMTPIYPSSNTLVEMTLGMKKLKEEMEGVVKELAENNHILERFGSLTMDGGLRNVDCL
Briefly: TBK biochemical assay. Conditions: 10 point 1:4 dose response, 30 uM top concentration, 90 min at 25° C., LabChip EZ Reader II; read-out: TBK1_IC50. A digest of the protocol: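 Read-out was a Caliper LabChip mobility-shift assay, run after a 90-min, 25 °C reaction of TBK1 with substrate and compounds, quenched with stop buffer. Control wells received staurosporine at 10 uM final.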

SMILES strings stand for the structures.

Take `COc1nc(Nc2nccc(-c3ccc(OC4CCN(C(=O)[C@@H]5CC5(F)F)CC4(F)F)c(C#N)c3)n2)ccc1N1CCN(C2COC2)CC1` (stereo partly drawn) [Example 255, 2-[1-((S)-2,2-Difluoro-cyclopropanecarbonyl)-3,3-difluoro-piperidin-4-yloxy]-5-{2-[6-methoxy-5-(4-oxetan-3-yl-piperazin-1-yl)-pyridin-2-ylamino]-pyrimidin-4-yl}-benzonitrile]: the IC50 at IKKε and on TBK1 was below 0.1 µM throughout.
`COc1nc(Nc2nccc(-c3ccc(OC4CCN(C(=O)[C@@H]5CCC(=O)N5)CC4(F)F)c(C#N)c3)n2)ccc1N1CCN(C2COC2)CC1` (stereo partly drawn) [Example 256, 2,2-[3,3-Difluoro-1-((S)-5-oxo-pyrrolidine-2-carbonyl)-piperidin-4-yloxy]-5-{2-[6-methoxy-5-(4-oxetan-3-yl-piperazin-1-yl)-pyridin-2-ylamino]-pyrimidin-4-yl}-benzonitrile]: the IC50 at IKKε and at TBK1 was below 0.1 µM each time.
For `COc1nc(Nc2nccc(-c3ccc(OC4CCN(C(=O)[C@H](C)CO)CC4(F)F)c(C#N)c3)n2)ccc1N1CCN(C2COC2)CC1` (stereo partly drawn) [Example 257, 2-[3,3-Difluoro-1-((R)-3-hydroxy-2-methyl-propionyl)-piperidin-4-yloxy]-5-{2-[6-methoxy-5-(4-oxetan-3-yl-piperazin-1-yl)-pyridin-2-ylamino]-pyrimidin-4-yl}-benzonitrile], the IC50 on IKKε and at TBK1 was below 0.1 µM throughout.
Take `CC[C@H](O)C(=O)N1CCC(Oc2ccc(-c3ccnc(Nc4ccc(N5CCN(C6COC6)CC5)c(OC)n4)n3)cc2C#N)C(F)(F)C1` (stereo partly drawn) [Example 258, 2-[3,3-Difluoro-1-((S)-2-hydroxy-butyryl)-piperidin-4-yloxy]-5-{2-[6-methoxy-5-(4-oxetan-3-yl-piperazin-1-yl)-pyridin-2-ylamino]-pyrimidin-4-yl}-benzonitrile]: the IC50 on IKKε and at TBK1 was below 0.1 µM throughout.
On to `COc1nc(Nc2nccc(-c3ccc(OC4CCN(C(=O)C(C)F)CC4(F)F)c(C#N)c3)n2)ccc1N1CCN(C2COC2)CC1` (centres unmarked) [Example 259, 2-[3,3-Difluoro-1-(2-fluoro-propionyl)-piperidin-4-yloxy]-5-{2-[6-methoxy-5-(4-oxetan-3-yl-piperazin-1-yl)-pyridin-2-ylamino]-pyrimidin-4-yl}-benzonitrile], for which the IC50 on IKKε and at TBK1 was below 0.1 µM throughout.
With `COc1nc(Nc2nccc(-c3ccc(OC4CCN(C(=O)[C@@H](O)CO)CC4(F)F)c(C#N)c3)n2)ccc1N1CCN(C2COC2)CC1` (stereo partly drawn) [Example 260, 2-[1-((S)-2,3-Dihydroxy-propionyl)-3,3-difluoro-piperidin-4-yloxy]-5-{2-[6-methoxy-5-(4-oxetan-3-yl-piperazin-1-yl)-pyridin-2-ylamino]-pyrimidin-4-yl}-benzonitrile], the IC50 at IKKε and at TBK1 was below 0.1 µM throughout.
As for `COc1nc(Nc2nccc(-c3ccc(OC4CCN(C(=O)[C@@H](O)CO)CC4(F)F)c(C#N)c3)n2)ccc1N1CCN(C2COC2)[C@H](C)C1` (stereo partly drawn) [Example 262, 2-[1-((S)-2,3-Dihydroxy-propionyl)-3,3-difluoro-piperidin-4-yloxy]-5-{2-[6-methoxy-5-((R)-3-methyl-4-oxetan-3-yl-piperazin-1-yl)-pyridin-2-ylamino]-pyrimidin-4-yl}-benzonitrile], the IC50 at IKKε and at TBK1 was below 0.1 µM in each case.
Consider `COc1nc(Nc2nccc(-c3ccc(OC4(C)CCNCC4(F)F)c(C#N)c3)n2)ccc1N1CCN(C2COC2)CC1` (centres unmarked) [Example 263, 2-(3,3-Difluoro-4-methyl-piperidin-4-yloxy)-5-{2-[6-methoxy-5-(4-oxetan-3-yl-piperazin-1-yl)-pyridin-2-ylamino]-pyrimidin-4-yl}-benzonitrile], for which the IC50 on IKKε and at TBK1 was below 0.1 µM each time.
Regarding `COc1nc(Nc2nccc(-c3ccc(OC4(C)CCN(C(=O)[C@@H](O)CO)CC4(F)F)c(C#N)c3)n2)ccc1N1CCN(C2COC2)CC1` (stereo partly drawn) [Example 264, 2-[1-((S)-2,3-Dihydroxy-propionyl)-3,3-difluoro-4-methyl-piperidin-4-yloxy]-5-{2-[6-methoxy-5-(4-oxetan-3-yl-piperazin-1-yl)-pyridin-2-ylamino]-pyrimidin-4-yl}-benzonitrile], the IC50 at IKKε and on TBK1 was below 0.1 µM in each case.
With `COc1nc(Nc2nccc(-c3ccc(OC4(C)CCN(C(=O)[C@H](C)O)CC4(F)F)c(C#N)c3)n2)ccc1N1CCN(C2COC2)CC1` (stereo partly drawn) [Example 265, 2-[3,3-Difluoro-1-((S)-2-hydroxy-propionyl)-4-methyl-piperidin-4-yloxy]-5-{2-[6-methoxy-5-(4-oxetan-3-yl-piperazin-1-yl)-pyridin-2-ylamino]-pyrimidin-4-yl}-benzonitrile], the IC50 at IKKε and on TBK1 was below 0.1 µM in each case.
`COc1nc(Nc2nccc(-c3ccc(OC4CCN(C(=O)[C@H](C)O)C(C)C4)c(C#N)c3)n2)ccc1N1CCN(C2COC2)CC1` (stereo partly drawn) [Example 266, 2-[1-((S)-2-Hydroxy-propionyl)-2-methyl-piperidin-4-yloxy]-5-{2-[6-methoxy-5-(4-oxetan-3-yl-piperazin-1-yl)-pyridin-2-ylamino]-pyrimidin-4-yl}-benzonitrile]: the IC50 on IKKε and on TBK1 was below 0.1 µM throughout.
In the case of `COc1nc(Nc2nccc(-c3ccc(OC4(C)CCNCC4)c(C#N)c3)n2)ccc1N1CCN(C2COC2)CC1` [Example 267, 5-{2-[6-Methoxy-5-(4-oxetan-3-yl-piperazin-1-yl)-pyridin-2-ylamino]-pyrimidin-4-yl}-2-(4-methyl-piperidin-4-yloxy)-benzonitrile], the IC50 on IKKε and on TBK1 was below 0.1 µM throughout.
Turning to `COc1nc(Nc2nccc(-c3ccc(OC4(C)CCN(C(=O)[C@H](C)O)CC4)c(C#N)c3)n2)ccc1N1CCN(C2COC2)CC1` [Example 268, 2-[1-((S)-2-Hydroxy-propionyl)-4-methyl-piperidin-4-yloxy]-5-{2-[6-methoxy-5-(4-oxetan-3-yl-piperazin-1-yl)-pyridin-2-ylamino]-pyrimidin-4-yl}-benzonitrile], the IC50 is 0.1 to 1 µM at IKKε and below 0.1 µM at TBK1.
In the same order, the values of `COc1nc(Nc2nccc(-c3ccc(OC4(C)CCN(C(=O)[C@@H](O)CO)CC4)c(C#N)c3)n2)ccc1N1CCN(C2COC2)CC1` [Example 269, 2-[1-((S)-2,3-Dihydroxy-propionyl)-4-methyl-piperidin-4-yloxy]-5-{2-[6-methoxy-5-(4-oxetan-3-yl-piperazin-1-yl)-pyridin-2-ylamino]-pyrimidin-4-yl}-benzonitrile] are below 0.1 µM and below 0.1 µM.
For `COc1nc(Nc2nccc(-c3ccc(OC4CCNCC4C)c(C#N)c3)n2)ccc1N1CCN(C2COC2)CC1` (centres unmarked) [Example 270, 5-{2-[6-Methoxy-5-(4-oxetan-3-yl-piperazin-1-yl)-pyridin-2-ylamino]-pyrimidin-4-yl}-2-(3-methyl-piperidin-4-yloxy)-benzonitrile], in that order: below 0.1 µM and below 0.1 µM.
In the same order, the values of `COc1nc(Nc2nccc(-c3ccc(OC4CCN(C(=O)[C@H](C)O)CC4C)c(C#N)c3)n2)ccc1N1CCN(C2COC2)CC1` (stereo partly drawn) [Example 271, 2-[1-((S)-2-Hydroxy-propionyl)-3-methyl-piperidin-4-yloxy]-5-{2-[6-methoxy-5-(4-oxetan-3-yl-piperazin-1-yl)-pyridin-2-ylamino]-pyrimidin-4-yl}-benzonitrile] are below 0.1 µM and below 0.1 µM.

The record behind these values is patent US20230019491A1, “PYRIMIDINE TBK/IKKe INHIBITOR COMPOUNDS AND USES THEREOF” (Merck Patent GmbH, priority 2017, published 2023).
